Tests used:
DGKα = DGKα (Homo sapiens, UniProt P23743); assay: DGKα biochemical assay (ADP-Glo); conditions: read-out: DGK α IC50
In short: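 ADP-Glo kinase assay using OAG/PS (1:2) lipid substrate, sonicated, in HEPES pH 7.0 buffer with MgCl2, CaCl2, DTT, BSA, Triton X-100. Enzyme preincubated with compound 30 min at RT; substrate with ATP (DGKα: 400 μM) added, 45 min RT. Luminescence read; % inhibition vs DMSO and no-enzyme controls.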

DGKζ = target: T1, DGKζ (Homo sapiens, UniProt Q13574); assay: DGKζ biochemical assay (ADP-Glo); conditions: read-out: DGK ζ IC50
T1 construct: purchased Carna 12-110
T1 sequence (Q13574 1-929 isoform Q13574-4): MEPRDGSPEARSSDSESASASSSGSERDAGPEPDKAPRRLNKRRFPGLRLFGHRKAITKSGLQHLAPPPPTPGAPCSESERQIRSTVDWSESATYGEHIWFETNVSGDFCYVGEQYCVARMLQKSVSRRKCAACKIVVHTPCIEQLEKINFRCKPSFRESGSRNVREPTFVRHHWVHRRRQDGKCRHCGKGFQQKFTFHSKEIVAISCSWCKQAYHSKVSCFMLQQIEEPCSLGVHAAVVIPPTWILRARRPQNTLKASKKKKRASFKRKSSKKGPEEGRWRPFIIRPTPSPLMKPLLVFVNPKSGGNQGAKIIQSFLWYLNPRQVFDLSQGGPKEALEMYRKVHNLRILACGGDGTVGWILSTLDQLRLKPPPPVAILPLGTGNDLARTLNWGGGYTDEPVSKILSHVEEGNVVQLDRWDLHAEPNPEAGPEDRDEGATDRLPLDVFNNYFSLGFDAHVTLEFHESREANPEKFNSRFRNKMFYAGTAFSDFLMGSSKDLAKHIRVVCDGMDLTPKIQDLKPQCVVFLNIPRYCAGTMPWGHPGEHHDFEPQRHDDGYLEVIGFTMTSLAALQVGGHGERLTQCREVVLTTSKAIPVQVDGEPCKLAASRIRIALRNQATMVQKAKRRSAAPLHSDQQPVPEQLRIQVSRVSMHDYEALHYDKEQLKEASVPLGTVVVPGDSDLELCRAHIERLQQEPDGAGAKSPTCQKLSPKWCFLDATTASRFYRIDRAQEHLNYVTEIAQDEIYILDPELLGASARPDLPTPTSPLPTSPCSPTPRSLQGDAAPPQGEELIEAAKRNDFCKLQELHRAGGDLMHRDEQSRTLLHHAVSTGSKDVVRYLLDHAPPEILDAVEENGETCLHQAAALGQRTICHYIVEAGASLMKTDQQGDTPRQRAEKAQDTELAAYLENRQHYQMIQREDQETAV

DGKα, sequence (P23743 whole entry): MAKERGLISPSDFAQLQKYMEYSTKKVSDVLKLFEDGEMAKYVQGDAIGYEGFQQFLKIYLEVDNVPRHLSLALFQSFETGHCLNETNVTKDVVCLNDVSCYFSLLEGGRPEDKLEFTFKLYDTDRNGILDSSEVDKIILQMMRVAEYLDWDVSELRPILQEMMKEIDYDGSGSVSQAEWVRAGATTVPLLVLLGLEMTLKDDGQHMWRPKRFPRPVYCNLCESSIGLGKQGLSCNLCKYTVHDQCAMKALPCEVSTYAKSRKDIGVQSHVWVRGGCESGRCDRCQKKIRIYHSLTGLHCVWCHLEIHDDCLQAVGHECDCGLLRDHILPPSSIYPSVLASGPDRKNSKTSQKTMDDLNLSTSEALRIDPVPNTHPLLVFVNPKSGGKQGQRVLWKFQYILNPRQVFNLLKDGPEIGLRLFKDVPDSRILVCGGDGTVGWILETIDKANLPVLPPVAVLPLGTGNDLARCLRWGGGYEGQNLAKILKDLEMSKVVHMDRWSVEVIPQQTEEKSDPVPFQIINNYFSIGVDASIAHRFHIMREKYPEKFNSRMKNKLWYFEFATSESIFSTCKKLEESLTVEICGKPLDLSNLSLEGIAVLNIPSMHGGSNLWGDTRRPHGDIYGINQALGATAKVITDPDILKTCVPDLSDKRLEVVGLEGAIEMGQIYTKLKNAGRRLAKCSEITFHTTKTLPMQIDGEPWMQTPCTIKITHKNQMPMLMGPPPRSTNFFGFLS

| Compound | IC50 (DGKα) [µM] | IC50 (DGKζ) [µM] |
| --- | --- | --- |
| Cc1cc(F)cc(N(CC2CCC2)[C@H]2CC[C@@H](N(C)c3c(C#N)c(=O)n(C)c4ccc(C#N)nc34)CC2)c1 [Example 113, cis-8-((-4-((cyclobutylmethyl)(3-fluoro-5-methylphenyl)amino)cyclohexyl)(methyl)amino)-5-methyl-6-oxo-5,6-dihydro-1,5-naphthyridine-2,7-dicarbonitrile] | 0.01 to 0.1 | 0.01 to 0.1 |
| Cc1cc(F)cc(N(CC2CCC2)[C@H]2CC[C@@H](N(C)c3cc(=O)n(C)c4ccc(C#N)nc34)CC2)c1 [Example 114, cis-8-((-4-((cyclobutylmethyl)(3-fluoro-5-methylphenyl)amino)cyclohexyl)(methyl)amino)-5-methyl-6-oxo-5,6-dihydro-1,5-naphthyridine-2-carbonitrile] | 0.01 to 0.1 | ≥ 1 |
| COc1cc(N(CC2CC2)[C@H]2CC[C@H](N(C)c3c(C#N)c(=O)n(C)c4ccc(C#N)nc34)CC2)cc(OC)c1F [Example 115, trans-8-((-4-((cyclopropylmethyl)(4-fluoro-3,5-dimethoxyphenyl)amino)cyclohexyl)(methyl)amino)-5-methyl-6-oxo-5,6-dihydro-1,5-naphthyridine-2,7-dicarbonitrile] | 0.1 to 1 | 0.1 to 1 |
| Cn1c(=O)c(C#N)c(N(C)[C@H]2CC[C@@H](N(CC3CCCOC3)c3ccc4c(c3)OCO4)CC2)c2nc(C#N)ccc21 (stereo partly drawn) [Example 116, cis-8-((-4-(benzo[d][1,3]dioxol-5-yl((tetrahydro-2H-pyran-3-yl)methyl)amino)cyclohexyl)(methyl)amino)-5-methyl-6-oxo-5,6-dihydro-1,5-naphthyridine-2,7-dicarbonitrile] | < 0.01 | 0.01 to 0.1 |
| Cc1ccc(F)cc1N(CC1CC1)[C@H]1CC[C@H](N(C)c2c(C#N)c(=O)n(C)c3ccc(C#N)nc23)CC1 [Example 117, trans-8-((4-((cyclopropylmethyl)(5-fluoro-2-methylphenyl)amino)cyclohexyl)(methyl)amino)-5-methyl-6-oxo-5,6-dihydro-1,5-naphthyridine-2,7-dicarbonitrile] | ≥ 1 | 0.01 to 0.1 |
| Cc1ccc(F)cc1N(CC1CC1)[C@H]1CC[C@H](N(C)c2c(C#N)c(=O)n(C)c3ccc(Cl)nc23)CC1 [Example 118, trans-6-chloro-4-((4-((cyclopropylmethyl)(5-fluoro-2-methylphenyl)amino)cyclohexyl)(methyl)amino)-1-methyl-2-oxo-1,2-dihydro-1,5-naphthyridine-3-carbonitrile] | ≥ 1 | 0.1 to 1 |
| Cc1cc(F)ccc1N(CC1CC1)[C@H]1CC[C@@H](N(C)c2c(C#N)c(=O)n(C)c3ccc(C#N)nc23)CC1 [Example 119, cis-8-((4-((cyclopropylmethyl)(4-fluoro-2-methylphenyl)amino)cyclohexyl)(methyl)amino)-5-methyl-6-oxo-5,6-dihydro-1,5-naphthyridine-2,7-dicarbonitrile] | ≥ 1 | 0.01 to 0.1 |
| COc1cc(F)ccc1N(CC1CCC1)[C@H]1CC[C@H](N(C)c2c(C#N)c(=O)n(C)c3ccc(C#N)nc23)CC1 [Example 120, trans-8-((-4-((cyclobutylmethyl)(4-fluoro-2-methoxyphenyl)amino)cyclohexyl)(methyl)amino)-5-methyl-6-oxo-5,6-dihydro-1,5-naphthyridine-2,7-dicarbonitrile] | 0.1 to 1 | 0.01 to 0.1 |
| Cn1c(=O)c(C#N)c(N(C)[C@H]2CC[C@@H](N(CC3CCC3)c3ccc4c(c3)OC(F)(F)O4)CC2)c2nc(C#N)ccc21 [Example 121, cis-8-((-4-((cyclobutylmethyl)(2,2-difluorobenzo[d] [1,3]dioxol-5-yl)amino)cyclohexyl)(methyl)amino)-5-methyl-6-oxo-5,6-dihydro-1,5-naphthyridine-2,7-dicarbonitrile] | 0.01 to 0.1 | 0.01 to 0.1 |
| Cn1c(=O)cc(N(C)[C@H]2CC[C@@H](N(CC3CC3)c3ccc(F)c(OC4CC4)c3)CC2)c2nc(C#N)ccc21 [Example 122, cis-8-((-4-((3-cyclopropoxy-4-fluorophenyl) (cyclopropylmethyl)amino)cyclohexyl)(methyl)amino)-5-methyl-6-oxo-5,6-dihydro-1,5-naphthyridine-2-carbonitrile] | 0.1 to 1 | 0.1 to 1 |
| Cn1c(=O)c(C#N)c(N(C)[C@H]2CC[C@@H](N(CC3CC3)c3ccc(F)c(OC4CC4)c3)CC2)c2nc(C#N)ccc21 [Example 123, cis-8-((-4-((3-cyclopropoxy-4-fluorophenyl) (cyclopropylmethyl)amino)cyclohexyl)(methyl)amino)-5-methyl-6-oxo-5,6-dihydro-1,5-naphthyridine-2,7-dicarbonitrile] | 0.01 to 0.1 | 0.01 to 0.1 |

Second part, the molecule after the results:

| IC50 (DGKα) [µM] | IC50 (DGKζ) [µM] | Compound |
| --- | --- | --- |
| 0.1 to 1 | 0.01 to 0.1 | COc1cc(N(CC2CC2)[C@H]2CC[C@@H](N(C)c3cc(=O)n(C)c4ccc(C#N)nc34)CC2)cc(OC)c1F [Example 124, cis-8-((-4-((cyclopropylmethyl)(4-fluoro-3,5-dimethoxyphenyl)amino)cyclohexyl)(methyl)amino)-5-methyl-6-oxo-5,6-dihydro-1,5-naphthyridine-2-carbonitrile] |
| 0.1 to 1 | 0.1 to 1 | Cc1cc(N(CC2CC2)[C@H]2CC[C@H](N(C)c3c(C#N)c(=O)n(C)c4ccc(C#N)nc34)CC2)ccc1F [Example 125, trans-8-((4-((cyclopropylmethyl)(4-fluoro-3-methylphenyl)amino)cyclohexyl)(methyl)amino)-5-methyl-6-oxo-5,6-dihydro-1,5-naphthyridine-2,7-dicarbonitrile] |
| 0.1 to 1 | 0.1 to 1 | Cc1cc(N(CC2CCC2)[C@H]2CC[C@H](N(C)c3c(C#N)c(=O)n(C)c4ccc(C#N)nc34)CC2)ccc1F [Example 126, trans-8-((-4-((cyclobutylmethyl)(4-fluoro-3-methylphenyl)amino)cyclohexyl)(methyl)amino)-5-methyl-6-oxo-5,6-dihydro-1,5-naphthyridine-2,7-dicarbonitrile] |
| 0.1 to 1 | 0.01 to 0.1 | Cn1c(=O)c(C#N)c(N(C)[C@H]2CC[C@H](N(CC3CCC3)c3ccc(F)cc3C3CC3)CC2)c2nc(C#N)ccc21 [Example 127, trans-8-((-4-((cyclobutylmethyl)(2-cyclopropyl-4-fluorophenyl)amino)cyclohexyl)(methyl)amino)-5-methyl-6-oxo-5,6-dihydro-1,5-naphthyridine-2,7-dicarbonitrile] |
| 0.1 to 1 | 0.1 to 1 | Cc1ccc(N(CC2CC2)[C@H]2CC[C@H](N(C)c3c(C#N)c(=O)n(C)c4ccc(C#N)nc34)CC2)cc1 [Example 128, trans-8-((-4-((cyclopropylmethyl)(p-tolyl)amino)cyclohexyl)(methyl)amino)-5-methyl-6-oxo-5,6-dihydro-1,5-naphthyridine-2,7-dicarbonitrile] |
| 0.1 to 1 | 0.1 to 1 | Cc1ccc(N(CC2CCC2)[C@H]2CC[C@H](N(C)c3c(C#N)c(=O)n(C)c4ccc(C#N)nc34)CC2)cc1 [Example 129, trans-8-((-4-((cyclobutylmethyl)(p-tolyl)amino)cyclohexyl)(methyl)amino)-5-methyl-6-oxo-5,6-dihydro-1,5-naphthyridine-2,7-dicarbonitrile] |
